According to patent US12286428B2 (BRISTOL-MYERS SQUIBB COMPANY, priority 2019, dated 2025):

Assays:
[1] = biological target: T1, IRAK4 (Homo sapiens, UniProt Q9NWZ3); assay: IRAK4 Inhibition Assay; type: biochemical; settings: ATP 500 μM; FL-IPTSPITTTYFFFKKK peptide […]; IRAK4 0.6 nM; 60 min room temperature; Caliper LABCHIP 3000
T1 sequence (Q9NWZ3 1-460): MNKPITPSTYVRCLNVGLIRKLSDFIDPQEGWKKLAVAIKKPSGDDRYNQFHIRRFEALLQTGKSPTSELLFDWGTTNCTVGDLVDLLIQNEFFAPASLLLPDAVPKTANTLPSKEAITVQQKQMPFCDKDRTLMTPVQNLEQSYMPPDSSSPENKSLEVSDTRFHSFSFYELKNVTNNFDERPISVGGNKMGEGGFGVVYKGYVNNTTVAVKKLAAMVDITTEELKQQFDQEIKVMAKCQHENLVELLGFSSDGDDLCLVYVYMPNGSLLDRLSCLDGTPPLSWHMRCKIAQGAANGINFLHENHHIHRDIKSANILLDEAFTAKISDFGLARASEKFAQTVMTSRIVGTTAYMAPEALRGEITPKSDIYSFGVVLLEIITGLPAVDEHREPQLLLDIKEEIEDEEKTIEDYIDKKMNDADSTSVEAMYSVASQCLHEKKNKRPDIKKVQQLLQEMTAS
Experimental: The assays were performed in U-bottom 384-well plates. […] The reaction was initiated by the combination of IRAK4 with substrates and test compounds. The reaction mixture was incubated at room temperature for 60 min. and terminated by adding 45 μL of 35 mM EDTA to each sample. The reaction mixture was analyzed on the Caliper LABCHIP® 3000 (Caliper, Hopkinton, MA) by electrophoretic separation of the fluorescent substrate and phosphorylated product. […] The final concentrations of reagents in the assays are ATP, 500 μM; FL-[…] peptide 1.5 μM; IRAK4, 0.6 nM; and DMSO, 1.6%.

[2] = system: Human whole blood, IL-6 levels after TLR2 agonist lipoteichoic acid; assay: IRAK4 Whole Blood Assay; type: cell-based; settings: compounds 60 minutes at 37° C., lipoteichoic acid 10 μg/mL for 5 hours
Experimental: IRAK4 Whole Blood Assay Human whole blood containing the anti-coagulant ACD-A was plated in 384-well plate (25 μL/well) and incubated with compounds for 60 minutes at 37° C. in a 5% CO2 incubator. The blood was stimulated with a TLR2 agonist, 10 μg/mL final concentration of lipoteichoic acid (Invivogen, San Diego, CA) in 25 μL RPMI (Gibco) for 5 hours in a 5% CO2 incubator. At the end of the incubation, plates were centrifuged at 2300 rpm for 5 minutes. Supernatants were harvested and analyzed for IL-6 levels by Flow Cytometry beads assay (BD Biosciences, San Jose, CA).

Compound: CC[C@H]1[C@@H](COc2nccc3cc(C(N)=O)c4ncnn4c23)NC(=O)C1(F)F [Example 48, 9-(((2S,3S)-3-ethyl-4,4-difluoro-5-oxopyrrolidin-2-yl)methoxy)-[1,2,4]triazolo[1,5-a][1,7]naphthyridine-4-carboxamide]
- IC50 [1]: 0.0169 µM
- IC50 [2]: 2.25 µM

Compound: CC[C@@H]1CC(=O)N[C@@H]1COc1cccc2cc(C(N)=O)n3nccc3c12 [Example 35, 10-(((2S,3R)-3-ethyl-5-oxopyrrolidin-2-yl)methoxy)pyrazolo[5,1-a]isoquinoline-5-carboxamide]
- IC50 [1]: 0.0026 µM
- IC50 [2]: 1.65 µM

Compound: CC[C@H]1[C@@H](COc2nccc3cc(C(N)=O)c4nc(C)cn4c23)NC(=O)C1(F)F [Example 21, 1-(((2S,3S)-3-ethyl-4,4-difluoro-5-oxopyrrolidin-2-yl)methoxy)-8-methylimidazo[1,2-a][1,7]naphthyridine-6-carboxamide]
- IC50 [1]: 0.0107 µM
- IC50 [2]: 0.533 µM

Compound: CC[C@@H]1CC(=O)N[C@@H]1COc1nccc2cc(C(N)=O)c3nc(C)cn3c12 [Example 18, 1-(((2S,3R)-3-ethyl-5-oxopyrrolidin-2-yl)methoxy)-8-methylimidazo[1,2-a][1,7]naphthyridine-6-carboxamide]
- IC50 [1]: 0.0197 µM
- IC50 [2]: 20 µM

Compound: CC[C@@H]1CC(=O)N[C@@H]1COc1nccc2cc(C(N)=O)c3nccn3c12 [Example 16, 1-(((2S,3R)-3-ethyl-5-oxopyrrolidin-2-yl)methoxy)imidazo[1,2-a][1,7]naphthyridine-6-carboxamide]
- IC50 [1]: 0.011 µM
- IC50 [2]: 1.52 µM

Compound: CC[C@@H]1[C@H](F)C(=O)N[C@@H]1COc1nccc2cc(C(N)=O)c3nc(C)cn3c12 [Example 19, 1-(((2S,3S,4S)-3-ethyl-4-fluoro-5-oxopyrrolidin-2-yl)methoxy)-8-methylimidazo[1,2-a][1,7]naphthyridine-6-carboxamide]
- IC50 [1]: 0.0032 µM
- IC50 [2]: 0.485 µM

Compound: CC[C@@H]1CC(=O)N[C@@H]1COc1cccc2cc(C(N)=O)c3nccn3c12 [Example 2, 9-(((2S,3R)-3-ethyl-5-oxopyrrolidin-2-yl)methoxy)imidazo[1,2-a]quinoline-4-carboxamide]
- IC50 [1]: 0.015 µM
- IC50 [2]: 0.306 µM

Compound: CC[C@H]1[C@@H](COc2nccc3cc(C(N)=O)c4nccn4c23)NC(=O)C1(F)F [Example 20, 1-(((2S,3S)-3-ethyl-4,4-difluoro-5-oxopyrrolidin-2-yl)methoxy)imidazo[1,2-a][1,7]naphthyridine-6-carboxamide]
- IC50 [1]: 0.0088 µM
- IC50 [2]: 0.158 µM

Compound: 1-(((2S,3S,4S)-3-ethyl-4-fluoro-5-oxotetrahydrofuran-2-yl)methoxy)-8-methyl-8,9-dihydrofuro[2,3-h]isoquinoline-6-carboxamide [Example 51]
- IC50 [1]: 0.0031 µM
- IC50 [2]: 0.399 µM

Compound: CC[C@H]1[C@@H](COc2cccc3cc(C(N)=O)c4nccn4c23)NC(=O)[C@@H]1F [Example 4, 9-(((2S,3S,4R)-3-ethyl-4-fluoro-5-oxopyrrolidin-2-yl)methoxy)imidazo[1,2-a]quinoline-4-carboxamide]
- IC50 [1]: 0.0026 µM
- IC50 [2]: 0.593 µM

Compound: CC[C@@H]1[C@H](F)C(=O)N[C@@H]1COc1cccc2cc(C(N)=O)c3nccn3c12 [Example 5, 9-(((2S,3S,4S)-3-ethyl-4-fluoro-5-oxopyrrolidin-2-yl)methoxy)imidazo[1,2-a]quinoline-4-carboxamide]
- IC50 [1]: 0.0013 µM
- IC50 [2]: 0.28 µM

Compound: CC[C@@H]1[C@H](F)C(=O)N[C@@H]1COc1nccc2cc(C(N)=O)n3nccc3c12 [Example 36, 1-(((2S,3S,4S)-3-ethyl-4-fluoro-5-oxopyrrolidin-2-yl)methoxy)pyrazolo[5,1-a][2,7]naphthyridine-6-carboxamide]
- IC50 [1]: 0.0007 µM
- IC50 [2]: 0.159 µM

Compound: CC[C@@H]1CC(=O)N[C@@H]1COc1ccc(F)c2cc(C(N)=O)c3nccn3c12 [Example 14, 9-(((2S,3R)-3-ethyl-5-oxopyrrolidin-2-yl)methoxy)-6-fluoroimidazo[1,2-a]quinoline-4-carboxamide]
- IC50 [1]: 0.001 µM
- IC50 [2]: 0.557 µM
